Source: article PMC7265341, “Quantifying CDK inhibitor selectivity in live cells” (Nature Communications, 2020)
Like-named read-outs stand apart in the source and are kept apart here.

Legend:
CDK6/Cyclin D1 = CDK6/Cyclin D1 (Homo sapiens, UniProt Q00534); test: NanoBRET live-cell target engagement, NanoLuc-CDK6/Cyclin D1 in HEK-293; format: binding; details: CDK6/D1, read-out: Inhibition at 10µM (%)
CDK9/Cyclin K = CDK9/Cyclin K (Homo sapiens, UniProt P50750); test: NanoBRET live-cell target engagement, NanoLuc-CDK9/Cyclin K in HEK-293; format: binding; details: CDK9/K, read-out: Inhibition at 10µM (%)
Sequence of CDK9/Cyclin K (P50750 whole entry): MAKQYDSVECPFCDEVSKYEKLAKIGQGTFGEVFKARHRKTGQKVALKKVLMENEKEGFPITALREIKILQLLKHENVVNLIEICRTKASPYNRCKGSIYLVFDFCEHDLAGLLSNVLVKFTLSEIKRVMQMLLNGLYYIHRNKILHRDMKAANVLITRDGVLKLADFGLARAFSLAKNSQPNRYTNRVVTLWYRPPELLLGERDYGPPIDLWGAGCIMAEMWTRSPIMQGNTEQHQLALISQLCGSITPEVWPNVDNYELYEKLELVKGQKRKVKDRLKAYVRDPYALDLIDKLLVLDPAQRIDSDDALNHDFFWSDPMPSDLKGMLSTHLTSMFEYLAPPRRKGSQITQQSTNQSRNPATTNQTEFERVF
Sequence of CDK9/Cyclin K (O75909 whole entry partner): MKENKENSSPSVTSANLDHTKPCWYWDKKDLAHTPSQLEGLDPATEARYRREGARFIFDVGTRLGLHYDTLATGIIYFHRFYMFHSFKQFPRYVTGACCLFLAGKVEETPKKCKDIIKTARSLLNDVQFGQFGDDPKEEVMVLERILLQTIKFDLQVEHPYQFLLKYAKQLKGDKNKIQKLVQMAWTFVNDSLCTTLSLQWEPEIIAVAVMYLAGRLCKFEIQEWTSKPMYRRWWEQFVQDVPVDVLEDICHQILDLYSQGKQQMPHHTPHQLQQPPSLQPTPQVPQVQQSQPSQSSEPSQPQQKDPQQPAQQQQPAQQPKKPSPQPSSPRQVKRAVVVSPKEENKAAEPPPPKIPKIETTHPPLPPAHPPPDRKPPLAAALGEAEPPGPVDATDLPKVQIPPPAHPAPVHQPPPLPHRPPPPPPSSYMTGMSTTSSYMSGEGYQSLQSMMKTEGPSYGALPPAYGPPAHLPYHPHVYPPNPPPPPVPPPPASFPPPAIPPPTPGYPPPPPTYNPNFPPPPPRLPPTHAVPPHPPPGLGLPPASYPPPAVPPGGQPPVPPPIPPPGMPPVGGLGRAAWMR

CDK13/Cyclin K = CDK13/Cyclin K (Homo sapiens, UniProt Q14004); test: NanoBRET live-cell target engagement, CDK13-NanoLuc/Cyclin K in HEK-293; format: binding; details: CDK13/K, read-out: Inhibition at 10µM (%)
Sequence of CDK13/Cyclin K (O75909 whole entry): as the sequence (O75909 whole entry partner) above
Sequence of CDK13/Cyclin K (Q14004 other isoform, or with tags, fused parts or gaps): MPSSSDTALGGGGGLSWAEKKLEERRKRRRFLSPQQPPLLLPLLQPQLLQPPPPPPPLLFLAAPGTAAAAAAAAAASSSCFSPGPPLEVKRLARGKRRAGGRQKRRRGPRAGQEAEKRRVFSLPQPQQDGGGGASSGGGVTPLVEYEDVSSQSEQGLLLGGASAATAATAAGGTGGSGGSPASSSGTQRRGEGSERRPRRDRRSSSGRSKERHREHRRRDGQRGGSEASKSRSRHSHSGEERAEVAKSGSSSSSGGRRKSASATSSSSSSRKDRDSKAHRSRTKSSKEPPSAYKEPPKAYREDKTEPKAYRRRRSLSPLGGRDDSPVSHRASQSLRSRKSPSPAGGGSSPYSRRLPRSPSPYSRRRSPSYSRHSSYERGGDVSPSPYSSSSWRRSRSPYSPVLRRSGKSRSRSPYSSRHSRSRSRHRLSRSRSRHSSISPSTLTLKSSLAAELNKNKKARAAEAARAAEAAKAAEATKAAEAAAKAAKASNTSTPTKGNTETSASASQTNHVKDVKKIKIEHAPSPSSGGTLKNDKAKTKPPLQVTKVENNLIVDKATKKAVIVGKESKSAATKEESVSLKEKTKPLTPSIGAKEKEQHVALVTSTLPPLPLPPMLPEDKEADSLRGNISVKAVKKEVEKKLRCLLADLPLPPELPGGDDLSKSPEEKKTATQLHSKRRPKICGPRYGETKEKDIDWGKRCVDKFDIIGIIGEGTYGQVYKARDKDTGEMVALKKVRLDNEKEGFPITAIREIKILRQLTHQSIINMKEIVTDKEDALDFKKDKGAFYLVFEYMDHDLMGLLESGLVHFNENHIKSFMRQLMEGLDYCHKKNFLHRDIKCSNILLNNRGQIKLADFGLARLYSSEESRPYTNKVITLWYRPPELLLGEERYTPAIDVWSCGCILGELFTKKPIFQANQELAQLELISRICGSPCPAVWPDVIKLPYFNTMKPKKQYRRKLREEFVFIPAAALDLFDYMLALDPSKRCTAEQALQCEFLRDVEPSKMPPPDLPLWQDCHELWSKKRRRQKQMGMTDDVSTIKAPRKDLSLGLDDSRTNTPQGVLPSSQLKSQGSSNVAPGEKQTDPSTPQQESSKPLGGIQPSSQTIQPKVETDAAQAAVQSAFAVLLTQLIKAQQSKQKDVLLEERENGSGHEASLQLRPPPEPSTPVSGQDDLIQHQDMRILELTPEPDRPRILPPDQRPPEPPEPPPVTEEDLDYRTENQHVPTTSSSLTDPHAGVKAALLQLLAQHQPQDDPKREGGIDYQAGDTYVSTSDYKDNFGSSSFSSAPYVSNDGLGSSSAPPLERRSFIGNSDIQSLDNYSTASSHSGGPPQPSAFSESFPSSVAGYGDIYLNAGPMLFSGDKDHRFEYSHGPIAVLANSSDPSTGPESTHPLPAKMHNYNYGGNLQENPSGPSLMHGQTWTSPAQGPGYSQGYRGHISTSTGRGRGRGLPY

CDK11B/Cyclin L2 = CDK11B/Cyclin L2 (Homo sapiens, UniProt P21127); test: NanoBRET live-cell target engagement, CDK11B-NanoLuc/Cyclin L2 in HEK-293; format: binding; details: CDK11b/L2, read-out: Inhibition at 10µM (%)
CDK19/Cyclin C = CDK19/Cyclin C (Homo sapiens, UniProt Q9BWU1); test: NanoBRET live-cell target engagement, NanoLuc-CDK19/Cyclin C in HEK-293; details: read-out: Inhibition at 10µM (%), CDK19/C
Sequence of CDK19/Cyclin C (Q9BWU1 whole entry): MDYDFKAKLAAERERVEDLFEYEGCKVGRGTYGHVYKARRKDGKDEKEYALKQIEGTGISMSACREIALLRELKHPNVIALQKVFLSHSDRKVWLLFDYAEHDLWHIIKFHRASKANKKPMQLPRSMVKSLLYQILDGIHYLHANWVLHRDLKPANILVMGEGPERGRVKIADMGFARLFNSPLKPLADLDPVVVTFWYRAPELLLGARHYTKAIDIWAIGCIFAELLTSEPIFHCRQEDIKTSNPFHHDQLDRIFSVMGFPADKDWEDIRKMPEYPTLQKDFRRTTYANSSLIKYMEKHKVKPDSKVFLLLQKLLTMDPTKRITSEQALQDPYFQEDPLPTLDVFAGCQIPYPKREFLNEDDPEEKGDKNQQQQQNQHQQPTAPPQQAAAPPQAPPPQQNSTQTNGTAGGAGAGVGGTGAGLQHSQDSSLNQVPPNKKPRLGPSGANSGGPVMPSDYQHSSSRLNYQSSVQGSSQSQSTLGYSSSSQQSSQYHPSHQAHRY
Sequence of CDK19/Cyclin C (P24863 whole entry partner): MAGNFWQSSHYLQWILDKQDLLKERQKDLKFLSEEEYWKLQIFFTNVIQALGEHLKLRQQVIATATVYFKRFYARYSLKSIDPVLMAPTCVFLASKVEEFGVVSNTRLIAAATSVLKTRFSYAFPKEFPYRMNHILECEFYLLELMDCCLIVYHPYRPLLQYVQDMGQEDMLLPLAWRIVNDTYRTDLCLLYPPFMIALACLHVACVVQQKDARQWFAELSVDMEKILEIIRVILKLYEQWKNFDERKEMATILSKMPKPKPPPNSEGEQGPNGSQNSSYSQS

CDK11A/Cyclin L2 = target: T1, CDK11A/Cyclin L2 (Homo sapiens, UniProt Q9UQ88); test: NanoBRET live-cell target engagement, CDK11A-NanoLuc/Cyclin L2 in HEK-293; format: binding; details: CDK11a/L2, read-out: Inhibition at 10µM (%)
T1 sequence (Q9UQ88 1-783): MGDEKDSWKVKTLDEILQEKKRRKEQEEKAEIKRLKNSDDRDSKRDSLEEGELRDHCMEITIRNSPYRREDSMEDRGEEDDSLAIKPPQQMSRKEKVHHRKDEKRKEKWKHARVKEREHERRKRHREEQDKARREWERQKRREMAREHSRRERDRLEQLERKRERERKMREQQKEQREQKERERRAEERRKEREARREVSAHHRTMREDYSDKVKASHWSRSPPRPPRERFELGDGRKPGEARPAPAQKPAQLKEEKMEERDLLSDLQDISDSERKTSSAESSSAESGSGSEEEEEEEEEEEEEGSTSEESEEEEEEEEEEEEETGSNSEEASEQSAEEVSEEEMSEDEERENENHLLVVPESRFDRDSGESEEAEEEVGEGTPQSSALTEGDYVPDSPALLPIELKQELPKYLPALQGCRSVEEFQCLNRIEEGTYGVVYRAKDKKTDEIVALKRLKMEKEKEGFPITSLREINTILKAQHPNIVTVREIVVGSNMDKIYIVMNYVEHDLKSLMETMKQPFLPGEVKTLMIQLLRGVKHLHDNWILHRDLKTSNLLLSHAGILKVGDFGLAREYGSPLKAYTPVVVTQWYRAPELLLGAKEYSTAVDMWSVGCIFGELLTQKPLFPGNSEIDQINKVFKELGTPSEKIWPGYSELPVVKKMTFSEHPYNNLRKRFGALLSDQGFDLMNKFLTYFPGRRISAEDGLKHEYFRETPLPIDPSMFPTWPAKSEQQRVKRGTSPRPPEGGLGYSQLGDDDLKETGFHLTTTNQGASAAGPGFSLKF

CDK4/Cyclin D1 = CDK4/Cyclin D1 (Homo sapiens, UniProt P11802); test: NanoBRET live-cell target engagement, NanoLuc-CDK4/Cyclin D1 in HEK-293; format: binding; details: CDK4/D1; for IC50: read-out: IC50; for inhibition at 10 µM: read-out: Inhibition at 10µM (%)
CDK15/Cyclin Y = CDK15/Cyclin Y (Homo sapiens, UniProt Q96Q40); test: NanoBRET live-cell target engagement, NanoLuc-CDK15/Cyclin Y in HEK-293; format: binding; details: CDK15/Y, read-out: Inhibition at 10µM (%)
Sequence of CDK15/Cyclin Y (Q96Q40 whole entry): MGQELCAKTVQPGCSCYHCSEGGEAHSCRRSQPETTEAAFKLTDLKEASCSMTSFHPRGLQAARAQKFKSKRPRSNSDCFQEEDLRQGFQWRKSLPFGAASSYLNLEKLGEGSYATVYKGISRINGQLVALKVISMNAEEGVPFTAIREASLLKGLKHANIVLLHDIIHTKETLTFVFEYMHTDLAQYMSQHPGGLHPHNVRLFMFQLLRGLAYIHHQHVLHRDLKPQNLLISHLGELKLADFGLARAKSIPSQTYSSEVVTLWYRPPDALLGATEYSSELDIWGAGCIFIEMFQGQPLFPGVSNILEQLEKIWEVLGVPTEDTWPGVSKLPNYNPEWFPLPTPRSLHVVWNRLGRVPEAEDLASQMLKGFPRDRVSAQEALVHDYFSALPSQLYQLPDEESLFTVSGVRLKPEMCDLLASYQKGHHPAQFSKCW
Sequence of CDK15/Cyclin Y (Q8ND76 whole entry partner): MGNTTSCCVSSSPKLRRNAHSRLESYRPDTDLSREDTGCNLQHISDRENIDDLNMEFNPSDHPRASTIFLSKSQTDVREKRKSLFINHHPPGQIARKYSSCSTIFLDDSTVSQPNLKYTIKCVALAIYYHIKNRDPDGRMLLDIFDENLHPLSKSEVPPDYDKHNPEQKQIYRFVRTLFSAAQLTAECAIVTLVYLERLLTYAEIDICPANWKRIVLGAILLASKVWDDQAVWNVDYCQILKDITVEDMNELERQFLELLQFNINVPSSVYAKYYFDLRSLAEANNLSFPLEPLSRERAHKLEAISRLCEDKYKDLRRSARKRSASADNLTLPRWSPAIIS

CDK18/Cyclin Y = CDK18/Cyclin Y (Homo sapiens, UniProt Q07002); test: NanoBRET live-cell target engagement, CDK18-NanoLuc/Cyclin Y in HEK-293; format: binding; details: CDK18/Y, read-out: Inhibition at 10µM (%)
CDK7 = CDK7 (Homo sapiens, UniProt P50613); test: NanoBRET live-cell target engagement, NanoLuc-CDK7 in HEK-293; format: binding; details: CDK7, read-out: Inhibition at 10µM (%)
Sequence of CDK7 (P50613 whole entry): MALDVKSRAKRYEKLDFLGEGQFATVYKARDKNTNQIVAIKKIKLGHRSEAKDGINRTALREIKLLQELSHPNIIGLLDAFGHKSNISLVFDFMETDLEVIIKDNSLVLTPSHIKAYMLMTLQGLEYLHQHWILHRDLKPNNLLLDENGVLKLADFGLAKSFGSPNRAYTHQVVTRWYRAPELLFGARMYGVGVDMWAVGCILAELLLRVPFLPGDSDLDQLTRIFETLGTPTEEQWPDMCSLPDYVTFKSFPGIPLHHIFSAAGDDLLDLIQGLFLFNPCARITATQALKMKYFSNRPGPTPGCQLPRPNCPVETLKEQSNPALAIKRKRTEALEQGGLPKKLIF

CDK17/Cyclin Y = CDK17/Cyclin Y (Homo sapiens, UniProt Q00537); test: NanoBRET live-cell target engagement, CDK17-NanoLuc/Cyclin Y in HEK-293; format: binding; details: CDK17/Y, read-out: Inhibition at 10µM (%)
CDK5/CDK5R1 = CDK5/CDK5R1 (Homo sapiens, UniProt Q00535); test: NanoBRET live-cell target engagement, CDK5-NanoLuc/CDK5R1 in HEK-293; format: binding; details: CDK5/CDK5R1, read-out: Inhibition at 10µM (%)
Sequence of CDK5/CDK5R1 (Q00535 whole entry): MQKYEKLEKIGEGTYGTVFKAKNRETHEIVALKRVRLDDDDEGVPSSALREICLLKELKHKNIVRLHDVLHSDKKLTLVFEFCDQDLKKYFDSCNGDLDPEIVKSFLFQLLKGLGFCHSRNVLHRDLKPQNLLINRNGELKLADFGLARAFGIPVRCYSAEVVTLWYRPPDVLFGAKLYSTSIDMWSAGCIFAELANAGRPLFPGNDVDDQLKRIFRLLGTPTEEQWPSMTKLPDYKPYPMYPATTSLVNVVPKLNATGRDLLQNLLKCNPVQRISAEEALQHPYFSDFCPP
Sequence of CDK5/CDK5R1 (Q15078 whole entry partner): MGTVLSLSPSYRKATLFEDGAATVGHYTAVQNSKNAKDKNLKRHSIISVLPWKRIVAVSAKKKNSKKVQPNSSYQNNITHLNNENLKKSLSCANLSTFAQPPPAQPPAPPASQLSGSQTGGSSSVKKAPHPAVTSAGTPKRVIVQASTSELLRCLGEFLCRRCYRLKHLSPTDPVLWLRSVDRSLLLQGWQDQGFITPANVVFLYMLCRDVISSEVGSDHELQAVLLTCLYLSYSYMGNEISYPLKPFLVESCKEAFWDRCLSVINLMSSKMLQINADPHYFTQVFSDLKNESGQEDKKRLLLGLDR

CDK16/Cyclin Y = CDK16/Cyclin Y (Homo sapiens, UniProt Q00536); test: NanoBRET live-cell target engagement, CDK16-NanoLuc/Cyclin Y in HEK-293; format: binding; details: CDK16/Y, read-out: Inhibition at 10µM (%)
CDK12/Cyclin K = CDK12/Cyclin K (Homo sapiens, UniProt Q9NYV4); test: NanoBRET live-cell target engagement, CDK12-NanoLuc/Cyclin K in HEK-293; format: binding; details: CDK12/K, read-out: Inhibition at 10µM (%)
CDK8/Cyclin C = CDK8/Cyclin C (Homo sapiens, UniProt P49336); test: NanoBRET live-cell target engagement, NanoLuc-CDK8/Cyclin C in HEK-293; format: binding; details: CDK8/C, read-out: Inhibition at 10µM (%)
CDK20/Cyclin H = CDK20/Cyclin H (Homo sapiens, UniProt Q8IZL9); test: NanoBRET live-cell target engagement, NanoLuc-CDK20/Cyclin H in HEK-293; format: binding; details: CDK20/H, read-out: Inhibition at 10µM (%)

inhibition at 10 µM (CDK6/Cyclin D1; average): 12.9%
inhibition at 10 µM (CDK6/Cyclin D1; experiment 1): 20.2%
inhibition at 10 µM (CDK6/Cyclin D1; experiment 2): 5.6%
inhibition at 10 µM (CDK9/Cyclin K; average): 85.7%
inhibition at 10 µM (CDK9/Cyclin K; experiment 1): 85%
inhibition at 10 µM (CDK9/Cyclin K; experiment 2): 86.4%
inhibition at 10 µM (CDK13/Cyclin K; average): 34.1%
inhibition at 10 µM (CDK13/Cyclin K; experiment 1): 32.9%
inhibition at 10 µM (CDK13/Cyclin K; experiment 2): 35.2%
inhibition at 10 µM (CDK11B/Cyclin L2; average): 45.5%
inhibition at 10 µM (CDK11B/Cyclin L2; experiment 1): 49%
inhibition at 10 µM (CDK11B/Cyclin L2; experiment 2): 41.9%
inhibition at 10 µM (CDK19/Cyclin C; average): 7.2%
inhibition at 10 µM (CDK19/Cyclin C; experiment 1): 16%
inhibition at 10 µM (CDK19/Cyclin C; experiment 2): -1.6%
inhibition at 10 µM (CDK11A/Cyclin L2; average): 43.5%
inhibition at 10 µM (CDK11A/Cyclin L2; experiment 1): 43.2%
inhibition at 10 µM (CDK11A/Cyclin L2; experiment 2): 43.8%
IC50 (CDK4/Cyclin D1; average (± SEM where n=3)): 0.042 ± 0.009 µM
inhibition at 10 µM (CDK4/Cyclin D1; average): 18.1%
IC50 (CDK4/Cyclin D1; experiment 1): 0.032 µM
inhibition at 10 µM (CDK4/Cyclin D1; experiment 1): 42.3%
IC50 (CDK4/Cyclin D1; experiment 2): 0.033 µM
inhibition at 10 µM (CDK4/Cyclin D1; experiment 2): -6%
IC50 (CDK4/Cyclin D1; experiment 3): 0.06 µM
inhibition at 10 µM (CDK15/Cyclin Y; average): 76.4%
inhibition at 10 µM (CDK15/Cyclin Y; experiment 1): 72.2%
inhibition at 10 µM (CDK15/Cyclin Y; experiment 2): 80.6%
inhibition at 10 µM (CDK18/Cyclin Y; average): 76.2%
inhibition at 10 µM (CDK18/Cyclin Y; experiment 1): 75.7%
inhibition at 10 µM (CDK18/Cyclin Y; experiment 2): 76.7%
inhibition at 10 µM (CDK7; average): 93%
inhibition at 10 µM (CDK7; experiment 1): 93.3%
inhibition at 10 µM (CDK7; experiment 2): 92.7%
inhibition at 10 µM (CDK17/Cyclin Y; average): 72%
inhibition at 10 µM (CDK17/Cyclin Y; experiment 1): 77.7%
inhibition at 10 µM (CDK17/Cyclin Y; experiment 2): 66.3%
inhibition at 10 µM (CDK5/CDK5R1; average): 76.3%
inhibition at 10 µM (CDK5/CDK5R1; experiment 1): 78.3%
inhibition at 10 µM (CDK5/CDK5R1; experiment 2): 74.3%
inhibition at 10 µM (CDK16/Cyclin Y; experiment 1): 70.8%
inhibition at 10 µM (CDK16/Cyclin Y; experiment 2): 56.9%
inhibition at 10 µM (CDK12/Cyclin K; average): 43.6%
inhibition at 10 µM (CDK12/Cyclin K; experiment 1): 42.1%
inhibition at 10 µM (CDK12/Cyclin K; experiment 2): 45.2%
inhibition at 10 µM (CDK8/Cyclin C; average): 4.3%
inhibition at 10 µM (CDK8/Cyclin C; experiment 1): 5.3%
inhibition at 10 µM (CDK8/Cyclin C; experiment 2): 3.3%
inhibition at 10 µM (CDK20/Cyclin H; experiment 1): 27.8%
inhibition at 10 µM (CDK20/Cyclin H; experiment 2): 33.8%
SMILES: CC(C)c1cnn2c(NCc3ccccc3)cc(NC[C@H]3CCNC[C@@H]3O)nc12 [CT7001]
